{
  "source": "patent EP0128338A1",
  "about": "“Silver pseudomonate, compositions containing it and its use in treating pseudomonal infections” (BEECHAM GROUP PLC, priority 1983, dated 1984)",
  "tested_on": "Pseudomonas aeruginosa",
  "test": "Minimum inhibitory concentrations (MICs) against 20 strains of Pseudomonas aeruginosa in Blood Agar Base",
  "type": "cell-based",
  "procedure": "• a) The minimum inhibitory concentrations (MICs) of silver pseudomonate and sodium pseudomonate were determined against 20 strains of Pseudomonas aeruginosa in Blood Agar Base. […] Typical results are presented in Table 2. [formula] [formula]",
  "data": [
    {"substance": "Silver Pseudomonate A", "values": [
      {"measurement": "minimum inhibitory concentrations (MICs)", "setting": "20 strains of Pseudomonas aeruginosa, Blood Agar Base, comparison in words", "value": "more active than sodium pseudomonate against all strains tested"},
      {"measurement": "activity against Pseudomonas organisms", "setting": "general statement in words", "value": "active"}
    ]}
  ]
}
